Results from ChEMBL document CHEMBL1155017, “The use of natural product scaffolds as leads in the search for trypanothione reductase inhibitors” (Bioorg Med Chem, 2008).
pIC50, pKi: −log10 of the molar value. Calls of active or inactive are those of the source. The rule behind the calls is not given here.

Assays:
[1] = target: Trypanothione reductase (Trypanosoma cruzi) (UniProt P28593); experiment: Inhibition of Trypanosoma cruzi recombinant trypanothione reductase at 85 uM
[2] = system: Leishmania amazonensis; experiment: Antileishmanial activity against Leishmania amazonensis MHOM/BR/76/LTB-012 promastigotes at 100 uM after 72 hrs by alamar blue assay; assay type: functional; settings: MHOM/BR/76/LTB-012, 72 h, read-out: GI
[3] = target: T1, Trypanothione reductase (Trypanosoma cruzi, UniProt P28593); experiment: (§1) Inhibition of Trypanosoma cruzi recombinant trypanothione reductase
[4] = target: Trypanothione reductase (Trypanosoma cruzi) (UniProt P28593); experiment: as §1
[5] = target: T2, Glutathione reductase (Saccharomyces cerevisiae S288c) (UniProt P41921); experiment: Inhibition of yeast glutathione reductase at 100 uM
T2 sequence (whole entry): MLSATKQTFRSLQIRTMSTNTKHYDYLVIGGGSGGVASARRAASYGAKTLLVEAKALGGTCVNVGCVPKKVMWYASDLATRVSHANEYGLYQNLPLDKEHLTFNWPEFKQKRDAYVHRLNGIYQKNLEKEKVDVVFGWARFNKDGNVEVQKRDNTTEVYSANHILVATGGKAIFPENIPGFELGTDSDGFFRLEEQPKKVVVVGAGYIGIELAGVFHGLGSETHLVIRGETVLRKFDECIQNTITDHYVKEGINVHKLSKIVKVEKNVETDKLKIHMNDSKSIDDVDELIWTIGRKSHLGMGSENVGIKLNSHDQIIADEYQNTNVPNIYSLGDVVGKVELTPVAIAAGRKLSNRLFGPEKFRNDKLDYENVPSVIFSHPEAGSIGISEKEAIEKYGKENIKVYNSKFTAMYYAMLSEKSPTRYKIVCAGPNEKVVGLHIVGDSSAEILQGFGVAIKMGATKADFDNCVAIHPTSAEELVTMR

[6] = target: T2, Glutathione reductase (Saccharomyces cerevisiae S288c); experiment: Inhibition of yeast glutathione reductase at 10 uM
[7] = system: NIH3T3; experiment: Cytotoxicity against mouse NIH3T3 cells; assay type: cell-based
[8] = target: T1, Trypanothione reductase; experiment: Inhibition of Trypanosoma cruzi recombinant trypanothione reductase-substrate complex
[9] = target: Trypanothione reductase (Trypanosoma cruzi) (UniProt P28593); experiment: Inhibition of Trypanosoma cruzi recombinant trypanothione reductase at 12.2 uM
[10] = target: Trypanothione reductase (Trypanosoma cruzi) (UniProt P28593); experiment: Inhibition of Trypanosoma cruzi recombinant trypanothione reductase at 200 uM
[11] = target: Trypanothione reductase (Trypanosoma cruzi) (UniProt P28593); experiment: Inhibition of Trypanosoma cruzi recombinant trypanothione reductase at 400 uM
[12] = target: Trypanothione reductase (Trypanosoma cruzi) (UniProt P28593); experiment: Inhibition of Trypanosoma cruzi recombinant trypanothione reductase at 800 uM
[13] = system: Leishmania infantum; experiment: Antileishmanial activity against Leishmania infantum promastigotes; assay type: functional, organism-based
[14] = target: T3, Trypanothione reductase (Crithidia fasciculata, UniProt P39040); experiment: Inhibition of Crithidia fasciculata trypanothione reductase-substrate complex
[15] = target: T3, Trypanothione reductase; experiment: Inhibition of Crithidia fasciculata free trypanothione reductase
[16] = system: Leishmania amazonensis; experiment: Antileishmanial activity against Leishmania amazonensis MHOM/BR/76/LTB-012 promastigotes after 72 hrs by alamar blue assay; assay type: functional, organism-based; settings: MHOM/BR/76/LTB-012, 72 h

T1 sequence (P28593 whole entry): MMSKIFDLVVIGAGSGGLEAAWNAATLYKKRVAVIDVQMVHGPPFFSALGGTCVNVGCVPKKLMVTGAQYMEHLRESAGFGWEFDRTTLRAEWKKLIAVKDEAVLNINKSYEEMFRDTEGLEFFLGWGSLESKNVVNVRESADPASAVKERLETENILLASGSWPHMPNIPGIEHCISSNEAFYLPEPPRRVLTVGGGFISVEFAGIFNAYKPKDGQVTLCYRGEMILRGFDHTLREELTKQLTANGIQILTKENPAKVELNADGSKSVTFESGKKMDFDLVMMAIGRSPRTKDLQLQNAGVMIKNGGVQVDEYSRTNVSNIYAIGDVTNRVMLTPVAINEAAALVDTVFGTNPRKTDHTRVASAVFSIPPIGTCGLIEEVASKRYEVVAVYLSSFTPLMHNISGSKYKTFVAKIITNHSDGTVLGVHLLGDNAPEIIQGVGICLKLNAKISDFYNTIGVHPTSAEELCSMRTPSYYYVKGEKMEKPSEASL
Trypanothione reductase (Trypanosoma cruzi), sequence (P28593 whole entry, looked up): as the sequence (P28593 whole entry) above
T3 sequence (P39040 whole entry): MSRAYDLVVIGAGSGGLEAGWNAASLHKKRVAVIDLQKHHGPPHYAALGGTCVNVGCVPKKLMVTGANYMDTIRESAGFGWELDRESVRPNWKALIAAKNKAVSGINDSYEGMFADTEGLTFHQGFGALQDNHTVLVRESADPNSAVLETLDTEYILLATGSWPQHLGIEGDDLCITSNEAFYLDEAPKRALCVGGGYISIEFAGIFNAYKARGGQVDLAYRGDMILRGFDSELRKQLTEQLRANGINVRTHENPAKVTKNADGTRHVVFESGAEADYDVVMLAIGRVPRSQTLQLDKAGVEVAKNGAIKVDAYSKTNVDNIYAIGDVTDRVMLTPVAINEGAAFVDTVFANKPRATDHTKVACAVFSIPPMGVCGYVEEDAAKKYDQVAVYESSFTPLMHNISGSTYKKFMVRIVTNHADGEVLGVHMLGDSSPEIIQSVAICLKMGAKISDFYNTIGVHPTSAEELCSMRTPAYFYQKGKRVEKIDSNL

| SMILES | inhibition [1] | inhibition of growth at 100 µM [2] | other results |
| --- | --- | --- | --- |
| C=CC1CN2CCC1CC2C(O)c1ccnc2ccccc12 (centres undefined) | 18% | 51% | – |
| COc1cc(CC2NCCc3c2[nH]c2ccccc32)ccc1O (centres undefined) | – | – | pKi [3]: 5.15 |
| O=C1CC[C@]23/C=C/C(=O)NCCCCNCCCNC(=O)/C=C\c4ccc(c2c4)O[C@@H]3C1 | – | – | pKi [3]: 3.84; Kinact [4]: 0.116 min⁻¹ |
| CN(C)CCCn1c2c(c(=O)n(CCCN(C)C)c1=O)Nc1ccccc1S2 | 62% | 11% | Activity [5]: inactive; pKi [3]: 4.57 |
| CC1=CC2c3cccc4[nH]cc(c34)C[C@H]2N(C)C1 (some centres undefined) | 28% | 70% | – |
| COc1ccc2c3c(n(CCCN(C)C)c2c1)C(C)=NCC3 | 50% | 57% | inhibition [5]: 6%; pKi [3]: 4.45 |
| N#Cc1ccc(C2NCCc3c2[nH]c2ccccc32)cc1 (centres undefined) | – | – | pKi [3]: 5.70 |
| CN(C)CCCn1c2ccccc2c2ccncc21 | 20% | – | – |
| CN(C)CCc1cn(C)c2ccc(O)cc12 | 9% | – | – |
| CN(C)Cc1cn(C)c2ccccc12 | 8% | – | – |
| CN(C)c1ccc2nc3ccc(=[N+](C)C)cc-3sc2c1 | – | – | inhibition [6]: 30% |
| COc1ccc(-c2cc(=O)c3c(O)cc(OC)cc3o2)cc1 | 12% | – | – |
| COc1ccc2c(c1)[nH]c1c(C)nccc12 | 11% | – | – |
| COc1ccc2c3ccnc(C)c3n(CCCN(C)C)c2c1 | 13% | – | – |
| C[C@@H]1CN(CCCn2c3ccccc3c3ccccc32)C[C@H](C)N1 | 4% | – | – |
| Cc1nccc2c1[nH]c1ccccc12 | 10% | – | – |

| SMILES | inhibition [1] | inhibition of growth at 100 µM [2] | other results |
| --- | --- | --- | --- |
| Cc1nccc2c3ccccc3n(CCCN(C)C)c12 | 22% | – | – |
| O=C(/C=C/C=C/c1ccc2c(c1)OCO2)N1CCCCC1 | 11% | – | – |
| O=c1cc(-c2ccc(O)cc2)oc2cc(O)cc(O)c12 | 13% | – | – |
| c1ccc2c(c1)[nH]c1cnccc12 | 10% | – | – |
| CC[C@H]1[C@@H]2C[C@H]3[C@@H]4N(C)c5ccccc5[C@]45C[C@@H]([C@@H]2[C@H]5O)N3[C@@H]1O [AJMALINE] | 12% | 5% | – |
| CC[C@@]12CCCN3CC[C@]4(c5cccc(OC)c5N(C(C)=O)[C@@H]4CC1)[C@H]32 [ASPIDOSPERMINE] | 43% | 89% | pIC50 [7]: 4.34; Activity [5]: inactive; pIC50 [3]: 4.04; pKi [3]: 4.19 |
| COc1ccc2cc1Oc1ccc(cc1)C[C@H]1c3c(cc4c(c3Oc3cc5c(cc3OC)CCN(C)[C@@H]5C2)OCO4)CCN1C [CEPHARANTHINE] | – | – | pKi [3]: 5.12; pKi [8]: 4.29 |
| CN(C)CCCN1c2ccccc2Sc2ccc(Cl)cc21 [CHLORPROMAZINE] | – | – | pIC50 [3]: 5.24; pKi [3]: 5.49; inhibition [9]: 70% |
| COC(=O)NC1CCc2cc(OC)c(OC)c(OC)c2-c2ccc(OC)c(=O)cc21 (centres undefined) [COLCHININE] | 8% | 6% | – |
| C[C@H]1[C@H]2CC[C@H]3[C@@H]4CC=C5C[C@@H](N(C)C)CC[C@]5(C)[C@H]4CC[C@]23CN1C [CONESSINE] | 25% | 97% | inhibition [10]: 45%; inhibition [11]: 73%; inhibition [12]: 91% |
| COc1ccc2c3c([nH]c2c1)C(C)=NCC3 [HARMALINE] | 19% | – | pIC50 [13]: 3.92 |
| O=C(CCc1ccc(O)c(O)c1)NCCCNCCCCNCCCNC(=O)CCc1ccc(O)c(O)c1 [KUKOAMINE A] | – | – | pKi [14]: 4.89; pKi [15]: 5.74 |
| N=C(N)c1ccc(OCCCCCOc2ccc(C(=N)N)cc2)cc1 [PENTAMIDINE] | – | 86% | pIC50 [16]: 6.54 |
| O=c1[nH]c2c(c(=O)[nH]1)CNc1ccccc1S2 [PYRIMIDOBENZOTHIAZEPINE] | 10% | 14% | – |
| O=c1[nH]c2c(c(=O)[nH]1)Nc1ccccc1S2 [PYRIMIDOBENZOTHIAZINE] | 36% | 15% | – |
